Data set [1] can be described thus: Mydriasis, cholinolytic side effects (Pulewka). To be noted: in vivo, po, i.g. The text has this:
(§1) As already mentioned, the compounds according to the invention show better pharmacological properties than the known butynoline phosphate, particularly in regard to the broncholytic and anti-ulcerogenic effect obtainable therewith. Tests relating to inhibition of the carbachol-induced secretion of saliva and mydriasis have shown that the compounds according to the invention have fewer side effects than the known butynoline phosphate.
(§2) The following Table summarizes the results of pharmacological studies conducted with the compound according to the invention, 1,1-diphenyl-4-pyrrolidinyl-2-butyne-1-ol-N-methyl ammonium bromide, and with butynoline phosphate as the comparison substance.
i.g. i.g. exp. Pharmacol.

The next data set has as its system ACH. The data set is described as follows: Broncholysis (guinea pig), ACH (Konzett, Rossler). The data set is classed as in vivo. To be noted: Cavia porcellus, iv.
From the text: as §2
(§3) ACH 30 ACH 60 Rossler, R.,
(§4) Hi 500 Hi 1000 Arch. exp. Pharmacol.

The nature of data set [2]: Inhibition of the carbachol-induced secretion of saliva (rat), cholinolytic side effects (mod. Brown, Quinton). Conditions: in vivo, po, i.g.
From the text: as §1, §2
i.g. i.g. Brown, D. M., Quinton,
24 9.8 R. M., Brit. J. Pharma-

Data set [3] deals with carbachol-induced gastric secretion. Description: Inhibition of the carbachol-induced gastric secretion (Heidenhain cat) (Engler, Fritschi). The data set is classed as in vivo. Conditions: Felis catus, po, i.g.
From the text: as §2
0.3 0.3 Schmiedeberg's Arch.
(Heidenhain cat) Pharmacol. 297,

For the next data set, the system named is stress ulcer. The data set is described as follows: Anti-ulcerogenic effect, stress ulcer (Takagi, Okabe). The format is in vivo. Conditions: po, i.g.
From the text: as §2
effect i.g. i.g. Jap. J. Pharmac. 18,

For another data set, the system named is Hi. Description: Broncholysis (guinea pig), Hi (Konzett, Rossler). The format is in vivo. To be noted: Cavia porcellus, iv.
From the text: as §2, §3, §4

Data set [4] concerns the target T1, Mee-ileum (Cavia porcellus).
T1 construct: in vitro (Mee-ileum); from tissue; host or cells: isolated ileum ('Mee-ileum', read as guinea pig ileum)
The data set is described as follows: Spasmolytic effect in vitro (Mee-ileum) (Van Rossum). To be noted: ACH, read-out: Spasmolytic effect in vitro pA2 (ACH) (converted).
From the text: as §2
8.0 8.2 Arch. Int. Pharmaco-

For data set [5] the following is noted: in words; cited from earlier work.

Molecules are shown by their SMILES. Like-named read-outs stand apart in the source and are kept apart here.

We go through two molecules from US4420488A, “Quaternary 1,1-diphenyl-4-pyrrolidinium-2-butyne salts, a process for their production and medicaments containing these compounds” (Ludwig Heumann & Co. GmbH, priority 1980, dated 1983).

T1 sequence (H0W1Z3 1-590): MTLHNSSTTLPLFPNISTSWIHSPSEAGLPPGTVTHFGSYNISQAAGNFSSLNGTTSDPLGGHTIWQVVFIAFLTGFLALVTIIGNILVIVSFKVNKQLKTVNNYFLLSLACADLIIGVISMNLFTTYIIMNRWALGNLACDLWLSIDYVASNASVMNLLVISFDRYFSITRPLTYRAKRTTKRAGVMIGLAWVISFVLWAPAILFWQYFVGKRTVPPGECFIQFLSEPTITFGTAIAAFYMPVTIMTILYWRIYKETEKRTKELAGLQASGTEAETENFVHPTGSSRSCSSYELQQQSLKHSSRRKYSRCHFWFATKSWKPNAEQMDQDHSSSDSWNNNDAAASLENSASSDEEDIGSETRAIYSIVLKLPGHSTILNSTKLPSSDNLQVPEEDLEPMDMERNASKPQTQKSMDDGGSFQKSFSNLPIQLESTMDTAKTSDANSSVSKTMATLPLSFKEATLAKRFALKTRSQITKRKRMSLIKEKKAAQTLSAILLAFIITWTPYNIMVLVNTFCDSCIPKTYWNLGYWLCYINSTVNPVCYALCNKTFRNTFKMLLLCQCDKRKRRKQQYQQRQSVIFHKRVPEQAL

As to `C[N+]1(CC#CC(O)(c2ccccc2)c2ccccc2)CCCC1` [1,1-diphenyl-4-pyrrolidinyl-2-butyne-1-ol-N-methyl ammonium bromide], the ED50 in data set [1] was 128 mg/kg; in the data set with ACH, 0.03 mg/kg; in data set [2] it was 24 mg/kg; in data set [3] (read-out: Inhibition of the carbachol-induced gastric secretion ED50), 0.3 mg/kg; in the data set with stress ulcer, 25 mg/kg; in the data set on Hi it was 0.5 mg/kg. In addition, the Kb in data set [4] was 10 nM.
Take `OC(C#CCN1CCCC1)(c1ccccc1)c1ccccc1` [Butynoline phosphate, phosphate of 1,1-diphenyl-4-pyrrolidino-2-butyne-1-ol]: the ED50 in data set [1] was 16 mg/kg; in the data set on ACH it was 0.06 mg/kg; in data set [2], 9.8 mg/kg; in data set [3] (butynoline phosphate column, read-out: Inhibition of the carbachol-induced gastric secretion ED50 (ACH)), 0.3 mg/kg; with stress ulcer, 150 mg/kg; with Hi it was 1 mg/kg. In addition, the “pharmacological activity (known)” value in data set [5] is “anti-cholinergic spasmolytic and anti-ulcerogenic activity”. Further, the Kb in data set [4] is 6.31 nM.

In general, ED50 refers to the dose at which the effect has come halfway, by size or by number of responders.
